US8486979B2, “1,2,4 oxadiazole compounds and methods of use thereof” (AbbVie Inc., priority 2006, dated 2013)
Counter-ions that a name gives are not always drawn.

Molecular target: T1, human α4β2 nicotinic acetylcholine receptor (Homo sapiens, UniProt P17787+P43681)
T1 construct: expressed in transfected cells
Assay: Calcium flux (FLIPR) assay, HEK-293 cells expressing human α4β2 nAChR
Type: cell-based
Conditions: for Activity (allosteric effects—potentiation of fluorescence responses): α4β2 positive allosteric modulation, calcium fluorescence (FLIPR); for potency (EC50 values) for activation of α4β2 nAChRs in the presence vs absence of PAM: presence and absence of α4β2 PAM Compound 1, FIG. 5
Description: Experimental Procedure: Human embryonic kidney (HEK) 293 cells stably expressing human α4β2 or α3β4 combinations are grown to confluency in 162 cm^2 tissue culture flasks in DMEM media supplemented with 10% FBS and 25 μg/ml zeocin and 200 μg/ml hygromycin B. IMR-32 neuroblastoma cells (ATCC) are grown to confluency in 162 cm^2 tissue culture flasks in minimum essential media supplemented with 10% FBS and 1 mM sodium pyruvate, 1% non-essential amino acids and 1% antibiotic-antimycotic. The cells are then dissociated using cell dissociation buffer and 100-150 μl per well of 3.5×10^5 cells/ml cell suspension (˜50,000-100,000 cells/well) was plated into 96-well black plates (poly-D-lysine precoated) with clear bottom and maintained for 24-48 hours in a tissue culture incubator at 37° C. under an atmosphere of 5% CO2: 95% air. Other clonal cell lines or primary cell cultures that express endogenous α4* nicotinic receptors may also be used in this assay. Calcium flux was measured using calcium-3 assay kit (Molecular Devices, Sunnyvale, Calif.) or fluo-4 (Invitrogen). A stock solution of the dye was prepared by dissolving each vial supplied by the vendor in Hank's balanced salt solution buffer (HBSS) or 150 mM NMDG, 20 mM CaCl2 containing 10 mM HEPES, The stock solution was diluted 1:20 using the same buffer before use. The growth media was removed from the cells. The cells were loaded with 100 μl of the dye per well and incubated at room temperature for up to one hour for HEK 293 clonal stable cell lines or 30 minutes-45 minutes at 37° C. for IMR-32 cells Fluorescence measurements were read simultaneously from all the wells by a Fluorometic Imaging Plate Reader (FLIPR) at an excitation wavelength of 480 nm and an emission wavelength of 520 nm. Baseline fluorescence was measured for the first 6 seconds at which 3× concentrations of modulator/test compounds were added to the cell plate at 50 μl and incubated for five minutes. The fluorescence intensity was captured every second for the first 1 minute followed by every 5 seconds for an additional 4 minutes. This procedure was followed by 50 μl of 4× concentration of agonist and readings were taken for a period of 3-5 minutes as described above. Data was normalized to maximal responses and plotted as a function of concentration. The concentration dependence of changes fluorescence responses was fitted by nonlinear regression analysis (GraphPad Prism, San Diego, Calif.) to obtain EC50 values.
The positive allosteric modulator effects on α4β2 nAChRs exemplified by 3-(3-pyridin-3-yl-1,2,4-oxadiazol-5-yl)benzonitrile (Compound 1) and 3,5-di(pyridin-3-yl)-1,2,4-oxadiazole (Compound 2) can be identified by measuring their potentiating effect to fluorescence changes in intracellular calcium using a fluorimetric plate reader. The potentiating effect of an α4β2 modulator on α4β2 receptor can also be illustrated by concentration responses to α4β2 agonists, for example 5-[(2R)-azetidin-2-ylmethoxy]-2-chloropyridine (Compound A) and (3R)-1-pyridin-3-ylpyrrolidin-3-amine (Compound B), in presence of a fixed concentration of PAM. […] In addition to compound A and B, other known nicotinic agonists can be left-shifted in presence of α4β2 PAM such as […]. […] This could lead to preferential effects of the agonist at the desired subtype, viz., α4β2, without effects at other nicotinic receptor subtypes and thus enhancing in vivo selectivity of the agonist.
The activity (allosteric effects—potentiation of fluorescence responses) ranges are defined as follows; “a” denotes as activity range from 200-400%, “b” denotes an activity range from 150-200%, “c” denotes an activity range from 120-150% and “d” denotes an activity range 90-120%. […]

T1 sequence (P43681 29-627 limits assumed): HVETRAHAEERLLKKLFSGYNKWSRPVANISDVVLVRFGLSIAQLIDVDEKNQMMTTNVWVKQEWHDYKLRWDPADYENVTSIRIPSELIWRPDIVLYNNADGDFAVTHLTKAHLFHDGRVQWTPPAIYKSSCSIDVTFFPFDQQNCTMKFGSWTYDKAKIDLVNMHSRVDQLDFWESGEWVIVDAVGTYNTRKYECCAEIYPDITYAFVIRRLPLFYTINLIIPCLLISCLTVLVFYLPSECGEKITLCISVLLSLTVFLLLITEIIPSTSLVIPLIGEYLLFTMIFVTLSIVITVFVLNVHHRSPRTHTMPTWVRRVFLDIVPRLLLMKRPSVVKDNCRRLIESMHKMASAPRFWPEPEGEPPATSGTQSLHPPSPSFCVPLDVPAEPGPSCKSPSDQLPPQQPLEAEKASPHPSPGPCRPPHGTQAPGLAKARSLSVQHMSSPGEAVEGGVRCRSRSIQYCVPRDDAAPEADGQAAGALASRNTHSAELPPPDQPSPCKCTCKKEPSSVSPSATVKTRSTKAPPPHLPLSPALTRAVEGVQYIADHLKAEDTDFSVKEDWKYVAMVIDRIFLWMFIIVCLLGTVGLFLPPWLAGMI
T1 sequence (P17787 26-502): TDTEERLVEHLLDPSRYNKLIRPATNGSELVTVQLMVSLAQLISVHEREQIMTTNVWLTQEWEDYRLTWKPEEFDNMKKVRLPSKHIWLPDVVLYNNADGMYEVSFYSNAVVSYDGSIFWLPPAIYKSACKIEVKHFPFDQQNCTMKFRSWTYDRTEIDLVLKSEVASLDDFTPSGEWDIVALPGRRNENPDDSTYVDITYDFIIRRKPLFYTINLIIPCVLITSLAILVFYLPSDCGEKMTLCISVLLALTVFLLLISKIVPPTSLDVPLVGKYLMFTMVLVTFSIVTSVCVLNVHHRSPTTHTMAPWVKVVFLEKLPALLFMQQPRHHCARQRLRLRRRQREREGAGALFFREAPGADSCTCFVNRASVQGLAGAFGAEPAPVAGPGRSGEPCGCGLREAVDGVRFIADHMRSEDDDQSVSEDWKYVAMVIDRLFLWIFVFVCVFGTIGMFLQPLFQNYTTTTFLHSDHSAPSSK

Row | SMILES | Activity (allosteric effects—potentiation of fluorescence responses) | potency (EC50 values) for activation of α4β2 nAChRs in the presence vs absence of PAM
1 | Oc1cncc(-c2nc(-c3cccnc3)no2)c1 [Example 9, 5-(3-(pyridin-3-yl)-1,2,4-oxadiazol-5-yl)pyridin-3-ol] | d (“d” denotes an activity range 90-120%) | –
2 | c1cnc2cc3c(cc2n1)[C@@H]1CNC[C@H]3C1 [varenicline, reference compound] | – | increase in the presence of the positive allosteric modulator
3 | Fc1cccc(-c2nc(-c3cccnc3)no2)c1F [Example 11, 5-(2,3-difluorophenyl)-3-(pyridin-3-yl)-1,2,4-oxadiazole] | a (“a” denotes as activity range from 200-400%) | –
4 | O=c1[nH]c2cc(-c3nc(-c4cccnc4)no3)ccc2o1 [Example 125, 5-(3-(pyridin-3-yl)-1,2,4-oxadiazol-5-yl)benzo[d]oxazol-2(3H)-one] | a (“a” denotes as activity range from 200-400%) | –
5 | Clc1cc(-c2noc(-c3cccnc3)n2)ccn1 [Example 42, 3-(2-chloropyridin-4-yl)-5-(pyridin-3-yl)-1,2,4-oxadiazole] | c (“c” denotes an activity range from 120-150%) | –
6 | CC(=O)c1cccc(-c2nc(-c3cccnc3)no2)c1 [Example 68, 1-(3-(3-(pyridin-3-yl)-1,2,4-oxadiazol-5-yl)phenyl)ethanone] | b (“b” denotes an activity range from 150-200%) | –
7 | Brc1cncc(-c2nc(-c3cccnc3)no2)c1 [Example 5, 5-(5-bromopyridin-3-yl)-3-(pyridin-3-yl)-1,2,4-oxadiazole] | c (“c” denotes an activity range from 120-150%) | –
8 | O=[N+]([O-])c1cccc(-c2nc(-c3cccnc3)no2)c1 [Example 40, 5-(3-nitrophenyl)-3-(pyridin-3-yl)-1,2,4-oxadiazole] | a (“a” denotes as activity range from 200-400%) | –
9 | N#Cc1cccc(-c2noc(-c3cccnc3)n2)c1 [Example 3, 3-(5-(pyridin-3-yl)-1,2,4-oxadiazol-3-yl)benzonitrile] | a (“a” denotes as activity range from 200-400%) | –
10 | Cc1ccc(-c2noc(-c3cccc(C#N)c3)n2)cn1 [Example 7, 3-(3-(6-methylpyridin-3-yl)-1,2,4-oxadiazol-5-yl)benzonitrile] | b (“b” denotes an activity range from 150-200%) | –
11 | N#Cc1cccc(-c2noc(-c3ccc(Cl)nc3)n2)c1 [Example 76, 3-(5-(6-chloropyridin-3-yl)-1,2,4-oxadiazol-3-yl)benzonitrile] | b (“b” denotes an activity range from 150-200%) | –
12 | c1cncc(-c2noc(-c3cccnc3)n2)c1 [Example 2, 3,5-di(pyridin-3-yl)-1,2,4-oxadiazole] | a (“a” denotes as activity range from 200-400%) | –
13 | CS(=O)(=O)c1cccc(-c2nc(-c3cccnc3)no2)c1 [Example 41, 5-(3-(methylsulfonyl)phenyl)-3-(pyridin-3-yl)-1,2,4-oxadiazole] | c (“c” denotes an activity range from 120-150%) | –
14 | O=c1ccc(-c2noc(-c3cccnc3)n2)c[nH]1 [Example 55, 5-(5-(pyridin-3-yl)-1,2,4-oxadiazol-3-yl)pyridin-2(1H)-one] | c (“c” denotes an activity range from 120-150%) | –
15 | NS(=O)(=O)c1cccc(-c2nc(-c3cccnc3)no2)c1 [Example 35, 3-(3-(pyridin-3-yl)-1,2,4-oxadiazol-5-yl)benzenesulfonamide] | a (“a” denotes as activity range from 200-400%) | –
16 | N#Cc1ccc(-c2nc(-c3cccnc3)no2)cc1 [Example 19, 4-(3-(pyridin-3-yl)-1,2,4-oxadiazol-5-yl)benzonitrile] | b (“b” denotes an activity range from 150-200%) | –
17 | O=c1[nH]c2cc(-c3noc(-c4cccnc4)n3)ccc2o1 [Example 132, 5-(5-(pyridin-3-yl)-1,2,4-oxadiazol-3-yl)benzo[d]oxazol-2(3H)-one] | a (“a” denotes as activity range from 200-400%) | –
18 | N#Cc1cccc(-c2noc(-c3ccc(F)nc3)n2)c1 [Example 4, 3-(5-(6-fluoropyridin-3-yl)-1,2,4-oxadiazol-3-yl)benzonitrile] | b (“b” denotes an activity range from 150-200%) | –
19 | CN[C@@H](C)C/C=C/c1cncc(OC(C)C)c1 [ispronicline, reference compound] | – | increase in the presence of the positive allosteric modulator
20 | Fc1ccc(-c2nc(-c3cccnc3)no2)cc1F [Example 10, 5-(3,4-difluorophenyl)-3-(pyridin-3-yl)-1,2,4-oxadiazole] | a (“a” denotes as activity range from 200-400%) | –
21 | Fc1ccc(-c2nc(-c3cncnc3)no2)cc1F [Example 101, 5-(3,4-difluorophenyl)-3-(pyrimidin-5-yl)-1,2,4-oxadiazole tosylate] | a (“a” denotes as activity range from 200-400%) | –
22 | Fc1ccc(-c2nc(-c3ccnnc3)no2)cc1F [Example 83, 5-(3,4-Difluorophenyl)-3-(pyridazin-4-yl)-1,2,4-oxadiazole hydrochloride] | a (“a” denotes as activity range from 200-400%) | –
